Broadly, the Cmax is the maximum level reached in the sampled fluid or tissue.

The text below walks through data of patent US20260159497A1, “SOLID FORMS OF A COMPLEMENT FACTOR B INHIBITOR” (Novartis Pharma AG, priority 2022, published 2026).

Read-outs that look alike come from different tables or passages of the source. A value given as a limit tells only on which side of the number the result lay.

The nature of data set [1]: Pharmacokinetic study after oral dosing, dog. The following applies: in vivo, solution in 20% kleptose in water, Dog beagle male, Fasted, 5 mL/kg; for AUC(0-t): read-out: AUC0-24 h; for concentration at 24 h: read-out: C24 h. As for the experimental part: (§1) The pharmacokinetic profile of (S)-4-(2,2-difluoro-7-((5-methoxy-7-methyl-1H-indol-4-yl)methyl)-7-azaspiro[3.5]nonan-6-yl)benzoic acid was assessed in rats, dogs or non-human primates (NHPs) as the amorphous compound as a solution in 20% kleptose in water and as a suspension of Form A in 0.5% methocel+0.1% tween 80 in water.
(§2) Amorphous (S)-4-(2,2-difluoro-7-((5-methoxy-7-methyl-1H-indol-4-yl)methyl)-7-azaspiro[3.5]nonan-6-yl)benzoic acid was weighed into a glass vial with a magnetic stir bar to give formulations at dose concentrations of 0.1-1000 mg/kg. Approx. ⅓ the final volume of 20% kleptose (hydroxypropyl β-cyclodextrin, Aldrich, CAS #128446-35-5) in water was added to the vial (to afford either a 5 mL/kg or 10 mL/kg dose volume, depending on the species). The mixture was basified to a pH of 8.5 to 10 using dropwise addition of 2-5 M aqueous NaOH solution, with pH monitoring. The suspension was stirred, vortexed, and sonicated for 15-20 minutes to afford a homogenous mixture. The second ⅓ of the final volume of 20% kleptose was added to the vial and further stirred, vortexed, and sonicated for 15-20 minutes to afford a homogenous mixture. The pH was monitored and further pH adjustment to pH 8.5 to 10, if necessary, can be applied. The final ⅓ the final volume of 20% kleptose was added to the vial and further stirred, vortexed, and sonicated for 15-20 minutes to afford a homogenous solution. The pH of the solution was adjusted to a pH of 7.5 to 8.0 with dropwise addition of 1.0 M aqueous HCl solution with gentle stirring. The formulation should remain in solution.

Data set [2] can be described thus: Pharmacokinetic study after oral dosing, non-human primate. The following applies: cynomolgus monkey, in vivo, solution in 20% kleptose in water, Cyno male, 30 mg/kg, Fed, 5 mL/kg. As for the experimental part:
as §1, §2

A short description of data set [3]: Pharmacokinetic study after oral dosing, rat. The data set is classed as in vivo, SD Rat. The following applies: male, SD (Sprague-Dawley), rat, in vivo, po, solution in 20% kleptose in water, SD Rat male, Fed, 10 mL/kg; for AUC(0-t) / concentration at 24 h: oral; for AUC(0-t): read-out: AUC0-24 h; for concentration at 24 h: read-out: C24 h. The method, then: as §1, §2
Form A crystalline (S)-4-(2,2-difluoro-7-((5-methoxy-7-methyl-1H-indol-4-yl)methyl)-7-azaspiro[3.5]nonan-6-yl)benzoic acid was weighed into a glass vial with a magnetic stir bar to give formulations at dose concentrations of 0.1-1000 mg/kg. The crystalline material should preferably have a particle size with a D50 below 50 μm, and ideally with a D50 below 5 μm. The desired volume of 0.5% methocel (viscosity 400 cP, Aldrich, CAS #9004-67-5)/0.1% tween-80 (Aldrich, CAS #9005-65-6) was added (to afford a 5 mL/kg dose volume). The contents of the vial were stirred at 400-500 rpm on a stir-plate. Gentle vortex or bath sonication can be applied to break down any large clumps. The vial should be mixed well to ensure homogeneity right before animal dosing.

A short description of data set [4]: Dynamic vapor sorption (DVS) mass change. The following applies: 95% RH at 25° C. The data set is classed as physicochemical. From the text:
[table] The mass change by DVS isotherm (2 cycles 40-0-95-0-40% RH) are in the tables below. The mass change is based on the dry weight of each.

Data set [5] in a line: Solubility in Simulated Fluids at 37° C. The data set is classed as physicochemical. The following applies: for solubility at 24 h / solubility at 30 min: 37 °C, thermodynamic from solid; for solubility at 24 h: read-out: Solubility (mg/mL) 24 h; for solubility at 30 min: read-out: Solubility (mg/mL) 30 min. From the text: Solubility data of Form A (S)-4-(2,2-difluoro-7-((5-methoxy-7-methyl-1H-indol-4-yl)methyl)-7-azaspiro[3.5]nonan-6-yl)benzoic acid, Form B (S)-4-(2,2-difluoro-7-((5-methoxy-7-methyl-1H-indol-4-yl)methyl)-7-azaspiro[3.5]nonan-6-yl)benzoic acid p-toluene sulfonic acid salt, Form C (S)-4-(2,2-difluoro-7-((5-methoxy-7-methyl-1H-indol-4-yl)methyl)-7-azaspiro[3.5]nonan-6-yl)benzoic acid p-toluene sulfonic acid salt, and Form D (S)-4-(2,2-difluoro-7-((5-methoxy-7-methyl-1H-indol-4-yl)methyl)-7-azaspiro[3.5]nonan-6-yl)benzoic acid hydrochloride salt in Simulated Fluids at 37° C.

For data set [6] the following is noted: after 12 weeks of treatment; cited from earlier work.
Where [7] appears, read: fassgf or other biorelevant, FaSSGF, 24 h.

For the molecule `COc1cc(C)c2[nH]ccc2c1CN1CCC2(C[C@H]1c1ccc(C(=O)O)cc1)CC(F)(F)C2` [(S)-4-(2,2-difluoro-7-((5-methoxy-7-methyl-1H-indol-4-yl)methyl)-7-azaspiro[3.5]nonan-6-yl)benzoic acid], the Cmax was found to be 3.64 µM in data set [1] (2 mg/kg); 139 µM in data set [1] (100 mg/kg); 8.6 µM in data set [2]; 2.42 µM in data set [3] (2 mg/kg); 94 µM in data set [3] (300 mg/kg). For the same molecule, the AUC(0-t) is 54.3 µM·h in data set [1] (2 mg/kg); 1320 µM·h in data set [1] (100 mg/kg); 96.1 µM·h in data set [2] (read-out: AUC0-24 h); 20.5 µM·h in data set [3] (2 mg/kg, 2 mg/kg); 1110 µM·h in data set [3] (300 mg/kg, 300 mg/kg). In addition, the concentration at 24 h in data set [1] (2 mg/kg) turned out to be 1.73 µM; in data set [1] (100 mg/kg), 18.8 µM; in data set [2] (read-out: C24 h), 1.75 µM; in data set [3] (2 mg/kg, 2 mg/kg), 0.21 µM; in data set [3] (300 mg/kg, 300 mg/kg), 18 µM.

For `COc1cc(C)c2[nH]ccc2c1CN1CCC2(C[C@H]1c1ccc(C(=O)O)cc1)CC(F)(F)C2.Cc1ccc(S(=O)(=O)O)cc1` [Form C, (S)-4-(2,2-difluoro-7-((5-methoxy-7-methyl-1H-indol-4-yl)methyl)-7-azaspiro[3.5]nonan-6-yl)benzoic acid p-toluene sulfonic acid salt], in data set [4], the “moisture absorbed by DVS (absorbs up to)” value is “up to 0.4%”. Moreover, the solubility at 24 h in data set [5] (setting [7]) was 0.85 mg/mL. Besides, the “pH at 24 h” value in data set [5] (FaSSGF) is recorded as 1.56; in data set [5] (FaSSIF), 6.25; in data set [5] (FeSSIF), 4.97; in data set [5] (Water, initial pH 7.00) it was 3.37. Moreover, the “Solubility (mg/mL) 30 min” value is 0.87 mg/mL in data set [5] (FaSSGF, 30 min); 1.68 mg/mL in data set [5] (FaSSIF, 30 min); 1.63 mg/mL in data set [5] (FeSSIF, 30 min); 0.88 mg/mL in data set [5] (Water, initial pH 7.00, 30 min). The “Solubility (mg/mL) 24 h” value in data set [5] (FaSSIF, 24 h) was 0.13 mg/mL; in data set [5] (FeSSIF, 24 h), 1.69 mg/mL; in data set [5] (Water, initial pH 7.00, 24 h), 1.12 mg/mL.

Consider `COc1cc(C)c2[nH]ccc2c1CN1CCC2(C[C@H]1c1ccc(C(=O)O)cc1)CC(F)(F)C2.Cl` [Form D, (S)-4-(2,2-difluoro-7-((5-methoxy-7-methyl-1H-indol-4-yl)methyl)-7-azaspiro[3.5]nonan-6-yl)benzoic acid hydrochloride salt], for which the solubility at 30 min in data set [5] (fassgf or other biorelevant, FaSSGF, 30 min) is 2.25 mg/mL; in data set [5] (fassif, FaSSIF, 30 min) it was 2.19 mg/mL; in data set [5] (fessif, FeSSIF, 30 min) it was 2.19 mg/mL; in data set [5] (pH 7, water, Water, initial pH 7.00, 30 min), 2.08 mg/mL. In addition, the solubility at 24 h in data set [5] (setting [7]) was > 2 mg/mL; in data set [5] (fassif, FaSSIF, 24 h), > 2 mg/mL; in data set [5] (fessif, FeSSIF, 24 h), 2.33 mg/mL; in data set [5] (pH 7, water, Water, initial pH 7.00, 24 h), > 2 mg/mL. Moreover, the “pH at 24 h” value in data set [5] (FaSSGF) is 1.57; in data set [5] (FaSSIF), 6.17; in data set [5] (FeSSIF), 4.95; in data set [5] (Water, initial pH 7.00) it was 3.13.

As to `CCO[C@H]1CCN(Cc2c(OC)cc(C)c3[nH]ccc23)[C@H](c2ccc(C(=O)O)cc2)C1` [iptacopan], the “efficacy in Phase II clinical trial in C3G” value in data set [6] was “reduced proteinuria”.
